Measurements published in BindingDB's records for patent US20230348426 (Bristol-Myers Squibb, 2023).

Tests used:
[1] = target: T1, N-formyl peptide receptor 2 (Homo sapiens, UniProt P25090); experiment: FPR2 and FPR1 Cyclic Adenosine Monophosphate (cAMP) Assays
T1 sequence (P25090 whole entry): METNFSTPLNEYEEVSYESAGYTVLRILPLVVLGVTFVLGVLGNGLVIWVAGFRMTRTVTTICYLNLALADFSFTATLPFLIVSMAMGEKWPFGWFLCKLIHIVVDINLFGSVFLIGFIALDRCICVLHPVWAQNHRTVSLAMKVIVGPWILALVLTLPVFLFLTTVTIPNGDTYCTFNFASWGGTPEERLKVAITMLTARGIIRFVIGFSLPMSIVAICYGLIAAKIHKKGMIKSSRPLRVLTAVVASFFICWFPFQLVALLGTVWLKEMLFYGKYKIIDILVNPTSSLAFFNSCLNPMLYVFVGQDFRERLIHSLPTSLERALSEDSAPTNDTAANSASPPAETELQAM
Method: (§1) A mixture of forskolin (5 M final for FPR2 or 10 M final for FPR1) and IBMX (200 M final) were added to 384-well Proxiplates (Perkin-Elmer) pre-dotted with test compounds in DMSO (1% final) at final concentrations in the range of 0.020 nM to 100 µM. Chinese Hamster Ovary cells (CHO) overexpressing human FPR1 or human FPR2 receptors were cultured in F-12 (Ham s) medium supplemented with 10% qualified FBS, 250 µg/ml zeocin and 300 µg/ml hygromycin (Life Technologies). Reactions were initiated by adding 2,000 human FPR2 cells per well or 4,000 human FPR1 cells per well in Dulbecco s PBS (with calcium and magnesium) (Life Technologies) supplemented with 0.1% BSA (Perkin-Elmer). The reaction mixtures were incubated for 30 min at room temperature. The level of intracellular cAMP was determined using the HTRF HiRange cAMP assay reagent kit (Cisbio) according to manufacturer s instruction. Solutions of cryptate conjugated anti-cAMP and d2 flurorophore-labelled cAMP were made in a supplied lysis buffer separately. Upon completion of the reaction, the cells were lysed with equal volume of the d2-cAMP solution and anti-cAMP solution. […] The potency and activity of a compound to inhibit cAMP production was then determined by fitting to a 4-parametric logistic equation from a plot of cAMP level versus compound concentrations.

fMet-Leu-Phe receptor = target: T2, fMet-Leu-Phe receptor (Homo sapiens, UniProt P21462); experiment: as above
T2 sequence (P21462 whole entry): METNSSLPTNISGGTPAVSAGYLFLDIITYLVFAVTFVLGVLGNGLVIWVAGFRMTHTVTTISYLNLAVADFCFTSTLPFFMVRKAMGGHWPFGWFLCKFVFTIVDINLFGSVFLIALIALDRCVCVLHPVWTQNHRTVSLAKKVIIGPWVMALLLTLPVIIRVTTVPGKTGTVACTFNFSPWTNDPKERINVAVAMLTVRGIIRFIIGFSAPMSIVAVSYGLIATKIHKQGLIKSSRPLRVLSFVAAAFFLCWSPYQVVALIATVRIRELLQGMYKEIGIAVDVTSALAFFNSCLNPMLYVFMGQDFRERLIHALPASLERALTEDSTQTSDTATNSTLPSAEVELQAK
Method: as §1

SMILES	EC50 [1] [nM]	EC50 (fMet-Leu-Phe receptor) [nM]
COc1cc(F)c([C@@H]2CN(c3c(C)ccn(C4CCN(C)C4)c3=O)C(=O)[C@H]2NC(=O)c2ccc(Cl)cc2)c(F)c1 (some centres not stated) [US20230348426, Example 510]	3.5	290
COc1cc(C2CCN(C)CC2)nc(N2C(=O)[C@@H](NC(=O)c3ccc(Cl)cc3)[C@H](c3c(F)cc(OC)cc3F)[C@H]2C)c1 [US20230348426, Example 558]	6.4	2000
COc1cc(F)c([C@@H]2CN(c3c(C)ccn(C4CCS(=O)(=O)CC4)c3=O)C(=O)[C@H]2NC(=O)c2ccc(Cl)cc2)c(F)c1 [US20230348426, Example 625]	1.9	12
COc1cc(F)c([C@@H]2CN(c3nc(N4CC(CO)OCC4=O)ccc3F)C(=O)[C@H]2NC(=O)c2ccc(OC(F)F)cc2)c(F)c1 (some centres not stated) [US20230348426, Example 331]	13	5600
COc1cc(F)c([C@@H]2CN(c3c(C)ccn(CC(O)C4CC4)c3=O)C(=O)[C@H]2NC(=O)c2ccc(Cl)cc2)c(F)c1 (some centres not stated) [US20230348426, Example 684]	7	5
COc1cc(F)c([C@@H]2CN(c3nc(N4CCCS4(=O)=O)ccc3F)C(=O)[C@H]2NC(=O)c2ccc(OC(F)(F)F)cc2)c(F)c1 [US20230348426, Example 289]	8.6	62
